According to patent publication US20240270809A1, “ORAL GLP RECEPTOR AGONISTS” (priority 2020, published 2024):
Positions of bridges follow the written chain, without caps; N, C: chain ends. Non-standard residues stand in square brackets, D forms with d. Residues, ends and D or L forms follow the SMILES beside them. *: point of attachment. Malonyl(2,2-Me2,histaminyl) = CC(C)(C(=O)NCCc1cnc[nH]1)C(=O)*; Ala(1H-tetrazol-5-yl) = N[C@@H](Cc1nnn[nH]1)C(=O)O; αMeL = CC(C)C[C@](C)(N)C(=O)O; Nle = CCCC[C@H](N)C(=O)O; Aib = CC(C)(N)C(=O)O

Legend:
human GLP2 receptor = target: T1, human GLP2 receptor (Homo sapiens, UniProt O95838); assay: cAMP accumulation assay, functional agonism of human GLP2 receptor; type: cell-based; settings: HEK cells infected with human GLP2 receptor BacMam virus, HTRF cAMP; for Emax: HEK293, read-out: Human GLP-2R agonist cAMP Emax; for EC50: read-out: Human GLP-2R agonist cAMP pEC50 (converted)
T1 construct: expressed in transfected cells; host or cells: HEK cells, BacMam virus transduction
T1 sequence (O95838 1-553): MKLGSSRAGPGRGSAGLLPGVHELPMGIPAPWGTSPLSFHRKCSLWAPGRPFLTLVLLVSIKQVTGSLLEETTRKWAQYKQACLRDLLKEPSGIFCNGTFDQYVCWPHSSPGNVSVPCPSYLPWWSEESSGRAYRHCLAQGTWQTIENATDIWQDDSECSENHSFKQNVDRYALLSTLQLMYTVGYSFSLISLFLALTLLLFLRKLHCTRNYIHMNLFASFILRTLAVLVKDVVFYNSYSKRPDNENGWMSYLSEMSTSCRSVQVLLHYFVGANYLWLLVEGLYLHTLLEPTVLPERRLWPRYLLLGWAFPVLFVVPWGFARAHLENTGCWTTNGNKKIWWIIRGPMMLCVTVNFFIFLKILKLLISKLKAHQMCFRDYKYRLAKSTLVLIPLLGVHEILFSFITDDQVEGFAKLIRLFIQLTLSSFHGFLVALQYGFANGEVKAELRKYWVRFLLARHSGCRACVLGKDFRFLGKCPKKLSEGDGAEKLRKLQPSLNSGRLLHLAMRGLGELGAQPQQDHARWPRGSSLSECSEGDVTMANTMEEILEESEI
Method in brief: (§1)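 cAMP read by HTRF detection reagents in lysis buffer following 45 min agonist exposure at 37 °C. Cells: frozen HEK transduced for 24 h with GLP1 or GLP2 receptor BacMam, suspended in HBSS plus 0.5 mM IBMX.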

human GLP1 receptor = target: T2, human GLP1 receptor (Homo sapiens, UniProt P43220); assay: cAMP accumulation assay, functional agonism of human GLP1 receptor; type: cell-based; settings: HEK cells infected with human GLP1 receptor BacMam virus, HTRF cAMP; for Emax: HEK293, read-out: Human GLP-1R agonist cAMP Emax; for EC50: read-out: Human GLP-1R agonist cAMP pEC50 (converted)
T2 construct: expressed in transfected cells; host or cells: HEK cells, BacMam virus transduction
T2 sequence (P43220 24-463): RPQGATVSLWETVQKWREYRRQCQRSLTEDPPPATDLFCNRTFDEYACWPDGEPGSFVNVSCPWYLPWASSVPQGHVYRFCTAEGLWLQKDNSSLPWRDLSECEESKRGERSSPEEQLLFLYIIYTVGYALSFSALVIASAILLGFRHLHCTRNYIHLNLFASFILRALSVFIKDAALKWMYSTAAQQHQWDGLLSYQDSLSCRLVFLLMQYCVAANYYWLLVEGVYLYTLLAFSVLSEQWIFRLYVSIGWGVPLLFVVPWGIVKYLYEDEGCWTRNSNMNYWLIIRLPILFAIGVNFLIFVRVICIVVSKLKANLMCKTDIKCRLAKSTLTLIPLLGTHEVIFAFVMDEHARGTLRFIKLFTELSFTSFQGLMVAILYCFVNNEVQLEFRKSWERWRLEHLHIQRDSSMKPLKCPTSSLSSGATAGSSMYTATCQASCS
Method in brief: as §1

mouse GLP2 receptor = target: T3, mouse GLP2 receptor (Mus musculus, UniProt Q5IXF8); assay: cAMP accumulation assay, functional agonism of mouse GLP2 receptor; type: cell-based; settings: HEK cells transiently transfected with mouse GLP2 receptor, HTRF cAMP; for Emax: HEK293, read-out: Mouse GLP-2R agonist cAMP Emax; for EC50: read-out: Mouse GLP-2R agonist cAMP pEC50 (converted)
T3 construct: expressed in transfected cells; host or cells: HEK cells, transient transfection with GeneJuice
T3 sequence (Q5IXF8 1-512): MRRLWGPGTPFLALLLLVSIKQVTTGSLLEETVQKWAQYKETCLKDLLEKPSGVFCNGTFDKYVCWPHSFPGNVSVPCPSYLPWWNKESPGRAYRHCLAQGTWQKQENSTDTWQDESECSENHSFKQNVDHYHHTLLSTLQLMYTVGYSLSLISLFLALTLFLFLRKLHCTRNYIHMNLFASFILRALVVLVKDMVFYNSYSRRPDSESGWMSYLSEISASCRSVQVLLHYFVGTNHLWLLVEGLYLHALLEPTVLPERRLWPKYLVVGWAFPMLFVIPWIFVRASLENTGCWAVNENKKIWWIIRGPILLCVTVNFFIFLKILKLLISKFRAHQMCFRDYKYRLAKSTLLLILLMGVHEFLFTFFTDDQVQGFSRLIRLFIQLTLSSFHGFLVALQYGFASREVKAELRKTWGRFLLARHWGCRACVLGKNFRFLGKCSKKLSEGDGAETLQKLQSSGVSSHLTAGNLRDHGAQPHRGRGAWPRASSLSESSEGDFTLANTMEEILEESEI
Method in brief: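 pEC50 values come from four-parameter fits of HTRF cAMP signal, read after lysis and 1 h RT incubation. Compounds were incubated 45 min at 37 °C with previously frozen, transiently transfected HEK cells (8000/well) in HBSS containing 0.5 mM IBMX.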

[1] = Stability of peptides in Fasted-State Simulated Intestinal Fluid (FaSSIF); type: in vitro ADME; settings: FaSSIF with 10 mg/ml pancreatin, 37° C.; for remaining at 0.5 h: t=30 mins, pH 6.5, 10 mg/ml pancreatin
[2] = Stability of peptides in Fasted-State Simulated Gastric Fluid (FaSSGF); type: in vitro ADME; settings: FaSSGF with 0.1 mg/ml pepsin; t=30 mins, 37° C., pH 1.6, 0.1 mg/ml pepsin
Protocol: Stability of peptides was tested in Fasted-State Simulated gastric Fluid (FaSSGF) prepared according to manufacturer's protocol (Biorelevant, art. no. FFF01). […] FaSSGF was pre-incubated for 15 min at 37° C. and spiked with test and reference item working solutions. Experiments were conducted in duplicate in a non-serial manner. The total incubation volume per replicate was 150 μl. […] All samples and calibration standards (prepared in FaSSGF) were precipitated by addition of 300 μl precipitant (ACN / 2% acetic acid / 0.2% HFBA, (precipitation regent, PR)) containing internal standards (ISTD) to 150 μl sample. After incubation for 1 h at room temperature all samples were centrifuged for 10 min at 2,200×g (room temperature).

[3] = Stability of peptides in rat intestinal fluid (ratIF); settings: Sprague Dawley, undiluted rat small intestinal fluid (ratIF)
Protocol: Peptides were tested for in vitro stability in native intestinal fluid obtained from the rat small intestine. Rat Sprague Dawley Small Intestinal Fluid (ratIF) (from Biotrend art. no. RSD-SIF-MI-30ML, undiluted) was preincubated for 15 min at 37° C. and spiked with test and reference item working solutions. Experiments were conducted in duplicate in a non-serial manner. The total incubation volume per replicate was 150 μl. […] All samples and calibration standards (prepared in ratIF) were precipitated by addition of 300 μl precipitant (ACN / 2% acetic acid / 0.2% HFBA, (precipitation regent, PR)) containing internal standards (ISTD) to 150 μl sample. After incubation for 1 h at room temperature all samples were centrifuged for 10 min at 2,200×g (room temperature).

Emax (human GLP2 receptor) | EC50 (human GLP2 receptor) | Emax (human GLP1 receptor) | EC50 (human GLP1 receptor) | Emax (mouse GLP2 receptor) | EC50 (mouse GLP2 receptor) | remaining at 0.5 h [1] | remaining at 0.5 h [2] | remaining at 0.5 h [3] | remaining at 0.25 h ([1]; FaSSIF pH 6.5 with 10 mg/ml pancreatin, t = 15 mins) | remaining at 0.25 h [3] | SMILES
105% | 0.0126 nM | 88.8% | 0.501 nM | 99% | 3.16 nM | 61.3% | 100% | 33.4% |  |  | CCCC[C@@H]1NC(=O)[C@H](CCC(=O)O)NC(=O)[C@@H](NC(=O)[C@H](CO)NC(=O)[C@H](Cc2ccccc2)NC(=O)[C@H](CO)NC(=O)[C@@H](C)NC(=O)[C@H](Cc2nn[nH]n2)NC(=O)C(C)(C)C(=O)NCCc2c[nH]cn2)CCCCNC(=O)C[C@@H](C(=O)N[C@H](C(=O)N[C@@H](CC(C)C)C(=O)N[C@@H](CC(=O)O)C(=O)N[C@H]2CCC(=O)NCCCC[C@@H](C(=O)N[C@@H](CC(=O)O)C(=O)N[C@@H](Cc3ccccc3)C(=O)N[C@H](C(=O)N[C@H]3CCCCNC(=O)C[C@@H](C(=O)N[C@H](C(=O)N[C@H]4CCC(=O)NCCCC[C@@H](C(N)=O)NC(=O)[C@H]([C@@H](C)O)NC(=O)[C@H]([C@@H](C)CC)NC4=O)[C@@H](C)O)NC(=O)[C@H]([C@@H](C)CC)NC(=O)[C@H](CC(C)C)NC(=O)[C@H](Cc4c[nH]c5ccccc45)NC3=O)[C@@H](C)CC)NC(=O)[C@H](C)NC(=O)[C@H](C)NC(=O)[C@H](CCCCN)NC2=O)[C@@H](C)CC)NC(=O)[C@@H](Cc2ccccc2)NC1=O [Example 38] ({Malonyl(2,2-Me2,histaminyl)}-[Ala(1H-tetrazol-5-yl)][dA]SFSKE[Nle][dF]DILDEKAAKDFIKWLIDTEITK-NH2; lactam 6-10, 14-18, 22-26, 28-31 (inferred); C-terminus assumed)
104% | 0.0501 nM | 96.5% | 0.2 nM |  |  | 95.3% | 100% | 62.4% |  |  | CCCC[C@H](NC(=O)[C@H](CCC(=O)O)NC(=O)[C@@H]1CC(=O)NCCCC[C@H](NC(=O)[C@H](Cc2nn[nH]n2)NC(=O)C(C)(C)C(=O)NCCc2c[nH]cn2)C(=O)N[C@@H](CO)C(=O)N[C@@H](Cc2ccccc2)C(=O)N[C@@H](CO)C(=O)N1)C(=O)N[C@H](Cc1ccccc1)C(=O)N[C@H](C(=O)N[C@@](C)(CC(C)C)C(=O)N[C@@H](CC(C)C)C(=O)N[C@@H](CC(=O)O)C(=O)N[C@H]1CCC(=O)NCCCC[C@@H](C(=O)N[C@@H](CC(=O)O)C(=O)N[C@@H](Cc2ccccc2)C(=O)N[C@H](C(=O)N[C@H]2CCC(=O)NCCCC[C@@H](C(=O)N[C@H]3CCC(=O)NCCCC[C@@H](C(N)=O)NC(=O)[C@H]([C@@H](C)O)NC(=O)[C@H]([C@@H](C)CC)NC(=O)[C@H](CCCCN)NC3=O)NC(=O)[C@H]([C@@H](C)CC)NC(=O)[C@H](CC(C)C)NC(=O)[C@H](Cc3c[nH]c4ccccc34)NC2=O)[C@@H](C)CC)NC(=O)[C@H](C)NC(=O)[C@H](C)NC(=O)[C@H](CCCCN)NC1=O)[C@@H](C)O [Example 45] ({Malonyl(2,2-Me2,histaminyl)}-[Ala(1H-tetrazol-5-yl)]KSFSDE[Nle][dF]T[αMeL]LDEKAAKDFIEWLIKEKITK-NH2; lactam 2-6, 14-18, 22-26, 27-31 (inferred); C-terminus assumed)
105% | 0.0251 nM | 97.8% | 0.126 nM | 101% | 10 nM | 95.3% | 100% |  |  |  | CCCC[C@H](NC(=O)[C@H](CCC(=O)O)NC(=O)[C@@H]1CC(=O)NCCCC[C@H](NC(=O)[C@H](CC(=O)O)NC(=O)C(C)(C)NC(=O)[C@@H](N)Cc2c[nH]cn2)C(=O)N[C@@H](CO)C(=O)N[C@@H](Cc2ccccc2)C(=O)N[C@@H](CO)C(=O)N1)C(=O)N[C@H](Cc1ccccc1)C(=O)N[C@H](C(=O)N[C@@](C)(CC(C)C)C(=O)N[C@@H](CC(C)C)C(=O)N[C@@H](CC(=O)O)C(=O)N[C@H]1CCC(=O)NCCCC[C@@H](C(=O)N[C@@H](CC(=O)O)C(=O)N[C@@H](Cc2ccccc2)C(=O)N[C@H](C(=O)N[C@H]2CCC(=O)NCCCC[C@@H](C(=O)N[C@H]3CCC(=O)NCCCC[C@@H](C(N)=O)NC(=O)[C@H]([C@@H](C)O)NC(=O)[C@H]([C@@H](C)CC)NC(=O)[C@H](CCCCN)NC3=O)NC(=O)[C@H]([C@@H](C)CC)NC(=O)[C@H](CC(C)C)NC(=O)[C@H](Cc3c[nH]c4ccccc34)NC2=O)[C@@H](C)CC)NC(=O)[C@H](C)NC(=O)[C@H](C)NC(=O)[C@H](CCCCN)NC1=O)[C@@H](C)O [Example 46] (H-H[Aib]DKSFSDE[Nle][dF]T[αMeL]LDEKAAKDFIEWLIKEKITK-NH2; lactam 4-8, 16-20, 24-28, 29-33 (inferred); C-terminus assumed)
 |  |  |  |  |  | 1.7% | 9.2% | 1.3% | 1.2% | 5.7% | CC[C@H](C)[C@H](NC(=O)[C@H](Cc1ccccc1)NC(=O)[C@H](CC(=O)O)NC(=O)[C@H](CCCNC(=N)N)NC(=O)[C@H](C)NC(=O)[C@H](C)NC(=O)[C@H](CC(C)C)NC(=O)[C@H](CC(N)=O)NC(=O)[C@H](CC(=O)O)NC(=O)[C@H](CC(C)C)NC(=O)[C@@H](NC(=O)[C@@H](NC(=O)[C@H](CC(N)=O)NC(=O)[C@H](CCSC)NC(=O)[C@H](CCC(=O)O)NC(=O)[C@H](CC(=O)O)NC(=O)[C@H](CO)NC(=O)[C@H](Cc1ccccc1)NC(=O)[C@H](CO)NC(=O)CNC(=O)[C@H](CC(=O)O)NC(=O)CNC(=O)[C@@H](N)Cc1c[nH]cn1)[C@@H](C)O)[C@@H](C)CC)C(=O)N[C@@H](CC(N)=O)C(=O)N[C@@H](Cc1c[nH]c2ccccc12)C(=O)N[C@@H](CC(C)C)C(=O)N[C@H](C(=O)N[C@@H](CCC(N)=O)C(=O)N[C@H](C(=O)N[C@@H](CCCCN)C(=O)N[C@H](C(=O)N[C@H](C(=O)N[C@@H](CC(=O)O)C(=O)O)[C@@H](C)O)[C@@H](C)CC)[C@@H](C)O)[C@@H](C)CC [Teduglutide, reference compound]
